The values below come from paper PMC8424300, “Identification of novel microtubule inhibitors effective in fission yeast and human cells and their effects on breast cancer cell lines” (Open Biology, 2021).

Structures are written as SMILES.

Experiment [1] relates to HeLa cells. Kind of experiment: Time-lapse live imaging of mitotic progression and cell fate in HeLa cells (H2B-mCherry, EGFP-α-tubulin). Type of experiment: cell-based, human. As for the experimental part:
To determine whether these 34 compounds also induce mitotic abnormalities in human cells, a second screen of these compounds was conducted using HeLa cells. We used time-lapse microscopy to monitor mitotic progression in HeLa cells expressing mCherry-tagged histone H2B to mark chromatin, and EGFP-tagged α-tubulin to monitor microtubules over a 24 h time period in the presence of 2 µM of each of the 34 compounds. The duration of mitosis was determined by live-cell imaging, defined as the period from prophase to cytokinesis based on chromatin and microtubule morphologies (figure 2a). The control DMSO-treated cells progressed through mitosis with a mean mitotic duration of 77 ± 6 min. Among the 34 compounds we tested, nine caused a significant increase in mitotic duration in human cells (figure 2a), ranging from 122 ± 42 min (F15) to 720 ± 53 min (C16). […] As described in the Discussion, we have not carried out a detailed analysis for B8 in this study. To determine whether these cell deaths were caused by apoptosis, caspase activity was assayed for 24 h using time-lapse microscopy in the presence of the 12 compounds. Caspase 3 and Caspase 7 activities were observed 12–24 h after the addition of the compounds (electronic supplementary material, figure S1A). There were also other indications of apoptosis including the morphological chances reminiscing of membrane blebbing, chromatin condensation and cell explosion (electronic supplementary material, figure S1B). Caspase-mediated apoptosis induction is similar to the effects of mitotic arrest caused by anti-microtubule drugs in HeLa cells. […] We conclude that these 12 compounds cause mitotic arrest followed by cell death through apoptotic activation.
Figure 2. Effect of compounds on mitotic progression in HeLa cell (a). Duration of mitosis was analysed by live imaging of HeLa cells stably expressing H2B-mcherry (red) and EGFP-a tubulin (green) treated in the presence of 0.5 µM (K1, L1, J1) or 2 µM (C16, E2, O12, M2, I15, J3, I2, A15, F15) compound for 24 h and the time in mitosis was measured in 200 cells. DMSO-treated cells are shown, which served as the vehicle control. Show mean as ‘+’. (b). The Cell fate after mitosis (normal division, abnormal division or cell death) was quantitatively assessed after the mitotic arrest observed in (a). (c) Dose-dependent change of phenotypes after mitotic arrest with K1, L1 and J1.
For live-cell imaging experiments, 200 000 cells were seeded onto glass-bottom culture dishes (MatTek P35GC-1.5-14-C). Cells were grown overnight before the addition of the compound, and the culture media was replaced with fresh media lacking phenol red to limit phototoxicity before imaging.
Live-cell imaging was performed in a LCV110 U VivaView FL incubator microscope (Olympus) equipped with an X-Cite-exacte illumination source (Excelitas Technologies) and Orca-R2 CCD camera (Hamamatsu Photonics). For screening, images were acquired with a 20 × objective every 15 min for 24–48 h in the differential interference contrast (DIC), m-cherry and GFP channels. For assessment of apoptosis, the cells were monitored every 15 min for 24 h. Individual cells were manually analysed using the CellCognition browser.

Experiment [2] relates to CAL51 cells. Kind of experiment: Clonogenic (colony-forming) assay. Type of experiment: cell-based, human. Conditions: 12 h exposure, 9 days growth. As for the experimental part: Finally, a clonogenic assay was used to further evaluate the synergy effects between the L1 and Plk1 inhibitors to inhibit colony formation of breast cancer CAL51 cells after a 12 h drug exposure. The percentages of colony formation of cells treated with 0.1 nM BI2536 alone and 0.5 µM L1 alone were 89% and 67%, respectively, while cells treated with both 0.1 nM BI2536 and 0.5 µM L1 together were 2% (figure 10) indicating strong synergetic effects in colony formation.
Figure 10. Quantification of the colony formation experiments (n = 3) after a 12 h exposure. CAL51 cells were treated with vehicle control, 0.1 nM BI2536, 0.5 µM L1 or 0.1 nM BI2536 and 0.5 µM L1 for 12 h. Cells were grown for 9 days in fresh media after 12 h exposure. Mean ± s.e.m. (n = 3) is shown.
CAL51 cells were plated at a density of 200 cells per 60 mm tissue culture dish. After 24 h, they were treated with vehicle (DMSO), 0.1 nM BI2538, 0.5 µM L1 or the combination of 0.1 nM BI2538 and 0.5 µM L1, respectively, for 12 h. After an exposure, the cells were washed with warm sterile PBS, and incubated for additional 9 days in fresh media. After the incubation, cells were fixed and stained with a 20% MeOH: 0.01% crystal violet solution for 30 min. Colonies were counted using a stereomicroscope in three independent experiments.

The test system of experiment [3] is fission yeast mutant strains (nda2-KM52, nda3-KM311, cdc25-22, cut14-208, act1-48). Kind of experiment: Drug sensitivity of fission yeast mutants spotted on YE medium. The conditions noted are these: figure S3. Type of experiment: cell-based, Schizosaccharomyces pombe.
Description: The Schizosaccharomyces pombe SAK933 strain (h90 ade6 leu1 ura4-D18 GFP-atb2≪kanr sid4-mcherry≪hygr caf5::bsdR pap1Δ pmd1Δ mfs1Δ bfr1Δ dnf2 Δ erg5::ura4+) [57] used for the phenotypic screening in this study was grown at 30°C in yeast extract (YE) medium containing adenine, leucine, uridine and histidine. A haploid wild-type strain 972 h^- and its derivative strains were used in the electronic supplementary material, figure S3: nda2-km52, nda3-km311 [58], cdc25-22 [59, 60], cdc14-208 [61] and act1-48 [62] spotted onto YE medium containing the same four supplements above and incubated for 3 days at 30°C.

In the case of `COc1cc(Br)cc2c1OC(c1ccc3c(c1)OCO3)C([N+](=O)[O-])=C2` (stereo not drawn) [L1], the cell fate result is listed as “arrested cells initially in mitosis, followed by cell death” in experiment [1] (0.5 µM compound) and “immediately induced cell death independent of the phase of the cell cycle” in experiment [1] (2 µM compound). For the same molecule, the “phenotype after mitotic arrest” value in experiment [1] (0.1 and 0.25 µM compound) was “abnormal multipolar, asymmetric cell divisions, generating 3–4 daughter cells”. For the same molecule, the “percentage of colony formation” value stood at 2% in experiment [2] (0.1 nM BI2536 and 0.5 µM L1 together); 67% in experiment [2] (0.5 µM L1 alone). The “drug sensitivity of cdc25-22, cut14-208 and act1-48 mutants” value in experiment [3] was “No such drug hypersensitivity”.
